From PubChem BioAssay (NCI)
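Method: 48-hour compound exposure of cells in 96-well plates, five concentrations, linear interpolation of endpoints. GI50 marks 50% less growth. Definition used: TGI = concentration required for complete inhibition of growth.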

Experiments:
Test in all cases: NCI tumour cell line growth inhibition, 48 h
LXFL 529 NSCLC = tested on: LXFL 529 NSCLC
786-0 renal = tested on: 786-0 renal
CCRF-CEM leukemia = tested on: CCRF-CEM leukemia
HOP-62 NSCLC = tested on: HOP-62 NSCLC
RXF-631 renal = tested on: RXF-631 renal
NCI-H23 lung = tested on: NCI-H23 lung
NCI-H460 lung = tested on: NCI-H460 lung
SK-MEL-2 melanoma = tested on: SK-MEL-2 melanoma
HL-60(TB) leukemia = tested on: HL-60(TB) leukemia
DMS 273 small cell lung = tested on: DMS 273 small cell lung
EKVX NSCLC = tested on: EKVX NSCLC
HOP-92 NSCLC = tested on: HOP-92 NSCLC
SK-OV-3 ovarian = tested on: SK-OV-3 ovarian
HCC-2998 colon = tested on: HCC-2998 colon
SF-295 CNS = tested on: SF-295 CNS
MOLT-4 leukemia = tested on: MOLT-4 leukemia
DLD-1 colon = tested on: DLD-1 colon
SK-MEL-5 melanoma = tested on: SK-MEL-5 melanoma
KM12 colon = tested on: KM12 colon
SNB-19 CNS = tested on: SNB-19 CNS
UACC-62 melanoma = tested on: UACC-62 melanoma
A549 NSCLC = tested on: A549 NSCLC
NCI-H522 lung = tested on: NCI-H522 lung
M19-MEL melanoma = tested on: M19-MEL melanoma
U251 CNS = tested on: U251 CNS
OVCAR-3 ovarian = tested on: OVCAR-3 ovarian
HCT-15 colon = tested on: HCT-15 colon
SN12C renal = tested on: SN12C renal
OVCAR-4 ovarian = tested on: OVCAR-4 ovarian
MALME-3M melanoma = tested on: MALME-3M melanoma
OVCAR-8 ovarian = tested on: OVCAR-8 ovarian
CAKI-1 renal = tested on: CAKI-1 renal
HCT-116 colon = tested on: HCT-116 colon
TK-10 renal = tested on: TK-10 renal
SNB-75 CNS = tested on: SNB-75 CNS
SF-539 CNS = tested on: SF-539 CNS
SK-MEL-28 melanoma = tested on: SK-MEL-28 melanoma
NCI-H226 lung = tested on: NCI-H226 lung
UO-31 renal = tested on: UO-31 renal
KM20L2 colon = tested on: KM20L2 colon
OVCAR-5 ovarian = tested on: OVCAR-5 ovarian
SF-268 CNS = tested on: SF-268 CNS
DMS 114 small cell lung = tested on: DMS 114 small cell lung
UACC-257 melanoma = tested on: UACC-257 melanoma
XF 498 CNS = tested on: XF 498 CNS
RPMI-8226 leukemia = tested on: RPMI-8226 leukemia
A498 renal = tested on: A498 renal
ACHN renal = tested on: ACHN renal
M14 melanoma = tested on: M14 melanoma
K-562 leukemia = tested on: K-562 leukemia
COLO 205 colon = tested on: COLO 205 colon
LOX IMVI melanoma = tested on: LOX IMVI melanoma
SW-620 colon = tested on: SW-620 colon
IGROV1 ovarian = tested on: IGROV1 ovarian
HT29 colon = tested on: HT29 colon
MCF7 breast = tested on: MCF7 breast
HS 578T breast = tested on: HS 578T breast
PC-3 prostate = tested on: PC-3 prostate
SR leukemia = tested on: SR leukemia
BT-549 breast = tested on: BT-549 breast
MDA-N = tested on: MDA-N
SNB-78 CNS = tested on: SNB-78 CNS
DU-145 prostate = tested on: DU-145 prostate
MDA-MB-231 breast = tested on: MDA-MB-231 breast
NCI/ADR-RES ovarian = tested on: NCI/ADR-RES ovarian
RXF 393 renal = tested on: RXF 393 renal
MDA-MB-435 = tested on: MDA-MB-435
T-47D breast = tested on: T-47D breast

Cc1cc(N(CCC#N)CCC#N)ccc1/C=C\C(=O)Nc1ccccc1
TGI (LXFL 529 NSCLC): > 100 µM
TGI (786-0 renal): > 100 µM
TGI (CCRF-CEM leukemia): > 100 µM
TGI (HOP-62 NSCLC): > 100 µM
TGI (RXF-631 renal): > 100 µM
TGI (NCI-H23 lung): > 100 µM
TGI (NCI-H460 lung): > 100 µM
TGI (SK-MEL-2 melanoma): > 100 µM
TGI (HL-60(TB) leukemia): > 100 µM
TGI (DMS 273 small cell lung): > 100 µM
TGI (EKVX NSCLC): > 100 µM
TGI (HOP-92 NSCLC): > 100 µM
TGI (SK-OV-3 ovarian): > 100 µM
TGI (HCC-2998 colon): 80.5 µM
TGI (SF-295 CNS): > 100 µM
TGI (MOLT-4 leukemia): > 100 µM
TGI (DLD-1 colon): > 100 µM
TGI (SK-MEL-5 melanoma): > 100 µM
TGI (KM12 colon): > 100 µM
TGI (SNB-19 CNS): > 100 µM
TGI (UACC-62 melanoma): > 100 µM
TGI (A549 NSCLC): > 100 µM
TGI (NCI-H522 lung): > 100 µM
TGI (M19-MEL melanoma): > 100 µM
TGI (U251 CNS): > 100 µM
TGI (OVCAR-3 ovarian): > 100 µM
TGI (HCT-15 colon): > 100 µM
TGI (SN12C renal): > 100 µM
TGI (OVCAR-4 ovarian): > 100 µM
TGI (MALME-3M melanoma): > 100 µM
TGI (OVCAR-8 ovarian): > 100 µM
TGI (CAKI-1 renal): > 100 µM
TGI (HCT-116 colon): > 100 µM
TGI (TK-10 renal): > 100 µM
TGI (SNB-75 CNS): > 100 µM
TGI (SF-539 CNS): > 100 µM
TGI (SK-MEL-28 melanoma): > 100 µM
TGI (NCI-H226 lung): > 100 µM
TGI (UO-31 renal): > 100 µM
TGI (KM20L2 colon): > 100 µM
TGI (OVCAR-5 ovarian): > 100 µM
TGI (SF-268 CNS): > 100 µM
TGI (DMS 114 small cell lung): > 100 µM
TGI (UACC-257 melanoma): > 100 µM
TGI (XF 498 CNS): > 100 µM
TGI (RPMI-8226 leukemia): > 100 µM
TGI (A498 renal): > 100 µM
TGI (ACHN renal): > 100 µM
TGI (M14 melanoma): > 100 µM
TGI (K-562 leukemia): > 100 µM
TGI (COLO 205 colon): > 100 µM
TGI (LOX IMVI melanoma): > 100 µM
TGI (SW-620 colon): > 100 µM
TGI (IGROV1 ovarian): > 100 µM
TGI (HT29 colon): > 100 µM

O=P(O)(NCCCl)NCCCl
GI50 (LXFL 529 NSCLC): > 100 µM
TGI (LXFL 529 NSCLC): > 100 µM
TGI (786-0 renal): > 100 µM
TGI (CCRF-CEM leukemia): > 100 µM
TGI (HOP-62 NSCLC): > 100 µM
TGI (MCF7 breast): > 100 µM
TGI (RXF-631 renal): > 100 µM
TGI (HS 578T breast): > 100 µM
TGI (NCI-H23 lung): > 100 µM
GI50 (NCI-H460 lung): 4.03 µM
TGI (NCI-H460 lung): > 100 µM
TGI (SK-MEL-2 melanoma): > 100 µM
TGI (HL-60(TB) leukemia): > 100 µM
TGI (PC-3 prostate): > 100 µM
TGI (DMS 273 small cell lung): > 100 µM
GI50 (EKVX NSCLC): > 100 µM
TGI (EKVX NSCLC): > 100 µM
TGI (HOP-92 NSCLC): > 100 µM
TGI (SK-OV-3 ovarian): > 100 µM
TGI (HCC-2998 colon): > 100 µM
GI50 (SR leukemia): 40.6 µM
TGI (SR leukemia): > 100 µM
TGI (SF-295 CNS): > 100 µM
TGI (MOLT-4 leukemia): > 100 µM
GI50 (DLD-1 colon): > 100 µM
TGI (DLD-1 colon): > 100 µM
TGI (BT-549 breast): > 100 µM
TGI (MDA-N): > 100 µM
GI50 (SNB-78 CNS): > 100 µM
TGI (SNB-78 CNS): > 100 µM
TGI (DU-145 prostate): > 100 µM
GI50 (SK-MEL-5 melanoma): > 100 µM
TGI (SK-MEL-5 melanoma): > 100 µM
GI50 (KM12 colon): > 100 µM
TGI (KM12 colon): > 100 µM
GI50 (SNB-19 CNS): > 100 µM
TGI (SNB-19 CNS): > 100 µM
TGI (MDA-MB-231 breast): > 100 µM
TGI (UACC-62 melanoma): > 100 µM
TGI (NCI/ADR-RES ovarian): > 100 µM
TGI (A549 NSCLC): > 100 µM
TGI (NCI-H522 lung): > 100 µM
GI50 (M19-MEL melanoma): > 100 µM
TGI (M19-MEL melanoma): > 100 µM
GI50 (U251 CNS): > 100 µM
TGI (U251 CNS): > 100 µM
GI50 (RXF 393 renal): > 100 µM
TGI (RXF 393 renal): > 100 µM
TGI (MDA-MB-435): > 100 µM
GI50 (OVCAR-3 ovarian): > 100 µM
TGI (OVCAR-3 ovarian): > 100 µM
GI50 (HCT-15 colon): > 100 µM
TGI (HCT-15 colon): > 100 µM
TGI (SN12C renal): > 100 µM
TGI (OVCAR-4 ovarian): > 100 µM
TGI (MALME-3M melanoma): > 100 µM
TGI (T-47D breast): > 100 µM
GI50 (OVCAR-8 ovarian): > 100 µM
TGI (OVCAR-8 ovarian): > 100 µM
TGI (CAKI-1 renal): > 100 µM
TGI (HCT-116 colon): > 100 µM
GI50 (TK-10 renal): > 100 µM
TGI (TK-10 renal): > 100 µM
GI50 (SNB-75 CNS): 7.07 µM
TGI (SNB-75 CNS): > 100 µM
TGI (SF-539 CNS): > 100 µM
TGI (SK-MEL-28 melanoma): > 100 µM
TGI (NCI-H226 lung): > 100 µM
TGI (UO-31 renal): > 100 µM
GI50 (OVCAR-5 ovarian): > 100 µM
TGI (OVCAR-5 ovarian): > 100 µM
TGI (SF-268 CNS): > 100 µM
GI50 (DMS 114 small cell lung): 99.1 µM
TGI (DMS 114 small cell lung): > 100 µM
GI50 (UACC-257 melanoma): > 100 µM
TGI (UACC-257 melanoma): > 100 µM
GI50 (XF 498 CNS): > 100 µM
TGI (XF 498 CNS): > 100 µM
TGI (RPMI-8226 leukemia): > 100 µM
TGI (A498 renal): > 100 µM
TGI (ACHN renal): > 100 µM
GI50 (M14 melanoma): 5.78 µM
TGI (M14 melanoma): > 100 µM
TGI (K-562 leukemia): > 100 µM
TGI (COLO 205 colon): > 100 µM
TGI (LOX IMVI melanoma): > 100 µM
GI50 (SW-620 colon): > 100 µM
TGI (SW-620 colon): > 100 µM
TGI (IGROV1 ovarian): > 100 µM
GI50 (HT29 colon): > 100 µM
TGI (HT29 colon): > 100 µM
